The record followed here is patent US9011853B2, “B7-H4 fusion proteins and methods of use thereof” (Amplimmune, Inc., priority 2009, dated 2015).

In test [1] the test system is DBA/1 mice. The experiment in a line: Therapeutic CIA study AA#79 (female mice), disease score. The format is in vivo, mouse. As to the method: DBA/1 mice (10 per group) aged 7-9 weeks were used for the CIA model. Mice from several vendors (Jackson Laboratories, Harlan Laboratories, and Taconic Farms) were tested and it was determined that Taconic mice are most appropriate for the CIA studies. Taconic mice develop more consistent and severe disease symptoms and show continued disease progression, while mice from the other vendors often show stable, less severe disease, even in the absence of treatment. female (F) mice in AA#79 and male (M) mice in AA#80, were tested to determine which gender to use in future experiments.
On the day before the study is initiated, the hair on the right flank of each mouse was removed using an electric clipper. A metal identification tag was placed on the right ear of each mouse. On Day 0, mice were immunized with 100 μL of chicken collagen type II/Complete Freund's Adjuvant (CII/CFA) emulsion in the right flank. On Day 20, the hair on the left flank of each mouse was removed using an electric clipper, and on Day 21, mice were immunized with 100 μL of chicken collagen type II/Incomplete Freund's Adjuvant (CII/IFA) emulsion in the left flank. Pre-filled syringes of CII/CFA and CII/IFA emulsion purchased from Hooke Laboratories were used to ensure consistent dosing with and potency of the immunogen.
Early arthritis symptoms, such as erythema and mild swelling, usually appear on Day 21, and on Day 28, more severe symptoms such as swelling in many digits and inflammation extending to the tarsal joint are typically present. Each limb is evaluated for severity of arthritis symptoms three times a week using a widely accepted arthritis severity score system, shown in Table 2. The scores from each of the 4 limbs are summed to yield the disease score of each mouse. […]
Treatment was initiated when the average disease score for the study animals was greater than four. This corresponded to Day 29 in AA#79 and Day 24 in […]. By waiting until animals are symptomatic, it was ensured that the model is performed in a therapeutic rather than prophylactic mode.
B7-H4-Ig, RPA110010, and murine B7-H4-Ig proteins were administered by intraperitoneal (IP) injection 3 times a week for a total of 8 doses. RPA110010 is an extracellular domain variant of B7-H4-Ig, SEQ ID NO:126. Control murine and human IgG proteins were given once a week for a total of 3 doses. […] All proteins were diluted to the desired concentration (500 μg in 500 μL, or 1 mg/mL) with sterile PBS immediately before injection. Vehicle control mice receive Amplimmune formulation buffer diluted 1:10 in PBS, with an injection volume of 500 μL.

In test [2] the test system is CD4^+CD62L^+ naïve T cells. The test can be described thus: In vitro Th1 polarization: proliferation and cytokine production. The format is cell-based, mouse. The method, then: Mouse splenocytes were first removed isolated from DO11.10 mice, which express an MHC class II restricted T cell receptor specific for OVA323-339. Mouse CD4^+ T cells were purified using a Miltenyi CD4^+ T cell negative isolation kit (Cat#130-090-860). […] CD4^+CD62L^+ naïve T cells with or without CD25^+ T cells were cultured in serum free HL-1 media in the presence of rIL-2 (1 ng/mL), rIL-12 (4 ng/mL) and anti-IL-4 (1 μg/mL). Activity of murine B7-H4-Ig was tested in a number of formats (soluble and insoluble presentation of B7-H4-Ig). Murine B7-H4-Ig was also assessed for activity on T cells activated non-specifically or with antigen-specific stimulation. To provide murine B7-H4-Ig in an immobilized format, 96-well flat bottom plates were first coated with murine B7-H4-Ig, 100 μl per well at 1 μg/mL, and incubated at 37° C. for 2 hours. […] For non-specific antigen activation, Mouse CD3/CD28 T Cell Expander beads (Dynabeads®; Invitrogen, Cat#11452D) were added into each well, at a 1:1 cell to bead ratio. For OVA specific activation, splenocytes were first isolated from Balb/C mice as antigen presenting cells (APC) followed by irradiation at 3000 rads for 45 minutes and then added into each well, at a 1:1, APC to responder cell, ratio. OVA323-339 peptide was added into the culture at 20 μg/mL. [^3H]-Thymidine (1 μCi/well) was added into each well 24 hr post co-incubation. Proliferation was determined by uptake of [^3H]-thymidine detected at 48 hr post [^3H]-thymidine addition using a Topcount Microplate Scintillation Counter (Packard Instruments, Meridan, Conn.). Results are expressed as the mean of triplicate cultures±SEM. Supernatants were collected from plates without [^3H]-Thymidine at 72 hr for cytokine analysis. Cytokine measurements were performed using the Mouse Cytokine 10-Plex system (Millipore) and Luminex Liquidchip analyzer (Qiagen, Valencia, Calif.) or ELISA. The human and mouse B7-H4 proteins are 95% homologous. Human B7-H4-Ig was tested for cross-reactivity with murine T cells. Naïve CD4^+ T cells were isolated as described above. Upon purification, murine naïve CD4^+ T cells were polarized in the presence of IL-2, IL-12 and anti-IL4 for Th1 cell-promoting conditions, or TGF-β, IL-6, IL-23, anti-IL4, anti-IFNγ and anti-IL-2 for Th17 cell-promoting conditions, as described in Example 5 for murine B7-H4-Ig in vitro bioactivity. Human B7-H4-Ig was directly added into the culture at 0, 0.1, 1 or 10 μg/mL. Human Control IgG1 (Synagis®) was added into the culture to bring the final protein concentration to 10 μg/mL. […] After depletion of CD4^+CD25^+ T cells, CD25^+/P3^+ cells were decreased from approximately 5% to 1%.

Several values for one entry are separate records, joined by “and”; a condition that tells them apart may be missing. Equal values may be shown once. Entries after “also recorded” stand apart in the source; their conditions may differ.

“B7-H4-Ig: B7-H4 extracellular domain fused to Ig Fc; bare label is the human protein in Example 3, murine protein in Examples 1, 2, 5, 7-11”: the “disease scores, AA#79” value in test [1] (female DBA/1 mice, 20 mg/kg IP 3× weekly, 8 doses from Day 29, vs control groups (FIG. 7), 20 mg/kg) is given as “lower disease scores than mice in the control groups; also recorded: prolonged period of stable disease scores”. In addition, in test [2] (Th1 conditions, APC/OVA, CD25+ T cells depleted (open triangles), various doses (FIG. 29A)), the “decrease in IFN-γ production” value was “dose dependent”. Moreover, the “inhibition of IFN-γ production” value in test [2] (Th1 conditions, APC/OVA, in the presence of CD4+CD25+ Treg cells (solid triangle) (FIG. 29A)) is recorded as “more profound”. Also, the IL-10 production result in test [2] (Th1 conditions, APC/OVA, solid triangles (FIG. 29B)) is listed as “increased IL-10 production in a dose dependent manner”.

As to “Human B7-H4-Ig: human B7-H4 extracellular domain fused to hinge, CH2 and CH3 regions of human immunoglobulin Cγ1 chain; representative SEQ ID NOs:114-137”, the CIA disease score was 1 (2×) and 0 (4×) in test [1] (AA#79, Study Day 12, individual mouse (Tag#)); 2 (2×) and 1 (3×) and 0 in test [1] (AA#79, Study Day 18, individual mouse (Tag#)); 2 (5×) and 1 in test [1] (AA#79, Study Day 22, individual mouse (Tag#)); 2 (3×) and 3 (2×) and 4 in test [1] (AA#79, Study Day 25, individual mouse (Tag#)); 3 (2×) and 5 and 4 (3×) in test [1] (AA#79, Study Day 27, individual mouse (Tag#)); 6 and 5 (2×) and 4 (2×) and 7 in test [1] (AA#79, Study Day 29, individual mouse (Tag#)). Further, the CIA disease score in test [1] (AA#79, Study Day 32, individual mouse (Tag#)) was 5 (2×) and 4 (2×) and 2; in test [1] (AA#79, Study Day 34, individual mouse (Tag#)), 4 (2×) and 2 and 5 (2×); in test [1] (AA#79, Study Day 36, individual mouse (Tag#)), 4 and 5 and 1 and 6 and 3 and 12; in test [1] (AA#79, Study Day 39, individual mouse (Tag#)) it was 5 and 12 and 6 and 9 and 3 and 11; in test [1] (AA#79, Study Day 41, individual mouse (Tag#)) it was 5 (2×) and 12 and 7 and 10 (2×); in test [1] (AA#79, Study Day 43, individual mouse (Tag#)), 3 (2×) and 10 (2×) and 6 and 9. Also, the CIA disease score in test [1] (AA#79, Study Day 46, individual mouse (Tag#)) is 4 and 9 and 10 (2×) and 11 and 3; in test [1] (AA#79, Study Day 48, individual mouse (Tag#)) it was 5 and 10 (3×) and 6 and 11; in test [1] (AA#79, Study Day 50, individual mouse (Tag#)), 6 (2×) and 9 (2×) and 10 and 12; in test [1] (AA#79, Study Day 54, individual mouse (Tag#)) it was 3 and 10 (2×) and 13 (2×) and 5; in test [1] (AA#79, Study Day 57, individual mouse (Tag#)) it was 5 (2×) and 11 and 10 (2×) and 12. In test [2] (0, 0.1, 1 or 10 μg/mL in solution, anti-CD3/CD28 beads (FIG. 27)), the “IFN-γ production in Th1 cells” value was “reduced IFN-γ production”. For the same substance, the “murine Th1 proliferation” value in test [2] (0, 0.1, 1 or 10 μg/mL in solution, anti-CD3/CD28 beads, dose dependent (FIG. 26)) is recorded as “blocked murine Th1/Th17 proliferation”.
